Where two headings read alike, the source gives them in different places.
Legend:
[1] = system: BxPC-3, DU 145, PC-3 and MDA-MB-231; assay: Cell proliferation assay, all cell lines tested; details: low dose level 5 μg/mL
Protocol: (§1) Cell Proliferation assay: for each cell line, cell suspensions ranging in concentration of approximately 2-5×10^5 cells/mL of growth medium were prepared. 1 mL of each of these suspensions was aseptically transferred to a sterile tissue culture flask (12.5 or 25 cm^2) containing fresh growth medium. Three flasks (triplicate) were used for each group, and for each time point of viable cell number/mL measurement at 1, 3 and 5 days post-treatment (9 dishes per group in total). The cells were incubated and allowed to adhere to the bottom of the flasks and proliferate.
(§2) After approximately 24 hours of exposure to treatments, dosing media was replaced with fresh growth media and cells were returned to the incubator and allowed to proliferate.
(§3) Assessment of Cell Proliferation: For each cell line, measurement of viable cell number/mL was performed as already described above. This measurement was performed in triplicate from three flasks per group, at 1, 3 and 5 days post-removal of treatment.

[2] = system: Cytomegalovirus, Davis Strain-CMV; assay: Inhibition of Cytomegalovirus in HS27 fibroblasts; details: 4.75 μg/ml spinosad, virus load of 50-100 infectious units, HS27 cells
[3] = system: macrophage mice cell type J774; details: read-out: Cytotoxicity CC50; J774
[4] = system: Plasmodium falciparum 3D7 rings and trophozoites; assay: Susceptibility of different stages of P. falciparum; details: 3D7 parasites, 48 h, 1% initial parasitemia
[5] = system: MDA-MB-231 Human breast adenocarcinoma cells; details: for Cell Survival (% of Control; mean ± S.D.): 24-hour exposure, 24 h post end of exposure
Plasmodium vinckei = assay: In vivo test against Plasmodium vinckei parasites in mice; details: BALB/c female mice, 25 mg/kg intraperitoneally daily for 6 consecutive days in DMSO; vs DMSO control; P=0.0085
[6] = system: PC-3 Human prostatic adenocarcinoma cells; details: for Cell Survival (% of Control; mean ± S.D.): 24-hour exposure, 24 h post end of exposure
[7] = system: Leishmania donovati MON-2 amastigotes; assay: In vitro test against Leishmania amastigotes in J774 macrophages; details: read-out: Amastigotes IC50; infected J774 macrophages
[8] = system: Leishmania donovati MON-2 promastigotes; assay: In vitro test against Leishmania promastigotes; details: read-out: Promastigotes IC50; stationary-phase promastigotes, 26° C.
Vero cells = assay: Toxicity assay on Vero cells; format: cell-based, African Green Monkey
[9] = system: isolated mitochondria of H460 cells; assay: Oxygen consumption in isolated mitochondria, Seahorse XF24; format: biochemical; details: 4° C. for three hours
[10] = system: PC-3 Human prostatic adenocarcinoma cells; assay: Cell proliferation assay, PC-3; details: 24 hours of exposure (control 3.22)
Protocol: as §1, §2, §3

[11] = system: Herpes Simplex Virus 1 McIntyre (HSV1); assay: IC50 assay against HSV1 in Vero cells (cytopathic effect); details: 100 infectious units of Herpes Simplex 1, up to 5 days
Protocol: We performed an IC50 assay, in which the amount of virus in the quadruplicate assay wells is identical, and the concentration of drug varies over a range of ten concentrations. This assay was performed in a 48 well tissue culture dish, each well containing the appropriate cell line at approximately 90% confluence. […] Approximately 100 infectious units per well were added to each test well. Cells, HSV1 virus and drug are incubated for up to 5 days and cytopathic effect is determined.

[12] = system: DU 145 Human prostatic carcinoma cells; assay: Cell proliferation assay, DU 145; details: for Cell Number Doubling Time: 24 hours of exposure (control 2.17)
Protocol: as §1, §2, §3

[13] = system: BxPC-3 Human pancreatic adenocarcinoma; assay: Cell proliferation assay, BxPC-3; details: 24 hours of exposure (control 3.02)
Protocol: as §1, §2, §3

[14] = system: Plasmodium falciparum, strain 3D7; details: 2% spinosad dispersion in DMSO
[15] = system: murine Leukemia Virus (ATCC VR-1445); assay: Inhibition of murine Leukemia Virus in feline PG4 cells; format: cell-based; details: 10 μg/ml spinosad, virus load of 30 infectious units
[16] = system: DU 145 Human prostatic carcinoma cells; details: for Cell Survival (% of Control; mean ± S.D.): 24-hour exposure, 24 h post end of exposure
[17] = system: pancreatic tumor xenograph; assay: Mouse pancreatic tumor xenograph assay; format: in vivo; details: for tumor volume on day1: baseline
[18] = system: Herpes Simplex Virus type 2, Strain MS-HSV2; assay: IC50 assay against HSV2 in Vero cells; format: cell-based; details: 50-100 infectious units of HSV2
Plasmodium falciparum = assay: ATP levels in the Plasmodium parasite, luciferin/luciferase assay
H460 cells = assay: Cytotoxicity on H460 cells, ApoTox-Glo Triplex assay; format: cell-based
[19] = MDA-MB-231, 24 h post end of 24-hour exposure
[20] = PC-3, 24 h post end of 24-hour exposure
[21] = spinosad 10 μg/mL, succinate substrate
[22] = spinosad 20 μg/mL, succinate substrate
[23] = spinosad 40 μg/mL, succinate substrate
[24] = spinosad 80 μg/mL, succinate substrate
[25] = DU 145, 24 h post end of 24-hour exposure
[26] = mouse code 3, total spinosad dosed 390 mg/kg i.p. over 20 days
[27] = mouse code 6, total spinosad dosed 360 mg/kg i.p. over 20 days
[28] = mouse code 9, total spinosad dosed 540 mg/kg i.p. over 20 days
[29] = mouse code 10, total spinosad dosed 540 mg/kg i.p. over 20 days
[30] = mouse code 12, total spinosad dosed 615 mg/kg i.p. over 20 days
[31] = mouse code 13, total spinosad dosed 585 mg/kg i.p. over 20 days

Spinosad
cell number doubling time from 3 days post-treatment increased by [1]: 27.8-33.2%
inhibition of virus [2]: no inhibition
CC50 [3]: 42.6 ± 17.3 µM
activity against rings versus trophozoites [4]: same activity against both rings and trophozoites
Calculated LC50 [5, 19]: 13.4 µg/mL
Calculated LC100 [5, 19]: 36.7 µg/mL
Cell Survival (% of Control; mean ± S.D.) ([5]; MDA-MB-231, spinosad 10 μg/mL): 56.1 ± 13.7 % of Control
Cell Survival (% of Control; mean ± S.D.) ([5]; MDA-MB-231, spinosad 20 μg/mL): 38.0 ± 5.7 % of Control
Cell Survival (% of Control; mean ± S.D.) ([5]; MDA-MB-231, spinosad 30 μg/mL): 13.2 ± 1.4 % of Control
reduction in the number of Plasmodium vinckei parasites (Plasmodium vinckei): 70%
Calculated LC50 [6, 20]: 13.3 µg/mL
Calculated LC100 [6, 20]: 34.2 µg/mL
Cell Survival (% of Control; mean ± S.D.) ([6]; PC-3, spinosad 10 μg/mL): 53.8 ± 8.0 % of Control
Cell Survival (% of Control; mean ± S.D.) ([6]; PC-3, spinosad 20 μg/mL): 42.0 ± 9.5 % of Control
Cell Survival (% of Control; mean ± S.D.) ([6]; PC-3, spinosad 30 μg/mL): 5.9 ± 2.5 % of Control
IC50 [7]: 9 ± 3 µM
IC50 [8]: 9.5 ± 3.8 µM
state of treated cell monolayer (Vero cells): healthy
toxicity against Vero cells (Vero cells): no toxicity
ADP stimulation ([9]; 20 μg of spinosad): slight increase
spinosad concentration above which mitochondrial integrity is reduced ([9]; succinate substrate): above 40 μg/mL
State III respiration (numerator of RCR) [9, 21]: 711
State IV respiration (denominator of RCR) [9, 21]: 300
State III respiration (numerator of RCR) [9, 22]: 726
State IV respiration (denominator of RCR) [9, 22]: 330
State III respiration (numerator of RCR) [9, 23]: 666
State IV respiration (denominator of RCR) [9, 23]: 430
State III respiration (numerator of RCR) [9, 24]: 598
State IV respiration (denominator of RCR) [9, 24]: 500
Cell Number Doubling Time ([10]; PC-3, spinosad 5 μg/mL): 4.17 days
Cell Number Doubling Time ([10]; PC-3, spinosad 10 μg/mL): 5.55 days
Cell Number Doubling Time ([10]; PC-3, spinosad 15 μg/mL): 6.24 days
IC50 [11]: about 17.42 μg/ml
Cell Number Doubling Time ([12]; DU 145, spinosad 5 μg/mL): 2.89 days
Cell Number Doubling Time ([12]; DU 145, spinosad 10 μg/mL): 2.83 days
Cell Number Doubling Time ([12]; DU 145, spinosad 15 μg/mL): 3.18 days
cell number doubling time from 3 days post-treatment increased by ([12]; high dose level 15 μg/mL, DU 145): approximately 46.5%
Cell Number Doubling Time ([13]; BxPC-3, spinosad 5 μg/mL): 3.86 days
Cell Number Doubling Time ([13]; BxPC-3, spinosad 10 μg/mL): 4.76 days
Cell Number Doubling Time ([13]; BxPC-3, spinosad 15 μg/mL): 6.25 days
IC50 [14]: about 0.625 μg/ml
inhibition of virus [15]: no inhibition
Calculated LC50 [16, 25]: 12.5 µg/mL
Calculated LC100 [16, 25]: 32.8 µg/mL
Cell Survival (% of Control; mean ± S.D.) ([16]; DU 145, spinosad 10 μg/mL): 56.8 ± 3.1 % of Control
Cell Survival (% of Control; mean ± S.D.) ([16]; DU 145, spinosad 20 μg/mL): 30.2 ± 4.5 % of Control
Cell Survival (% of Control; mean ± S.D.) ([16]; DU 145, spinosad 30 μg/mL): 7.6 ± 4.1 % of Control
body weight ([17]; CD-1 athymic nude male mice, spinosad in DMSO i.p., on top of weight loss by DMSO alone): some weight loss
% difference of tumor volume day 21 vs day1 ([17]; mouse code 3, total spinosad dosed 390 mg/kg): −42%
tumor volume on day 21 [17, 26]: 107.7 mm^3
tumor volume on day1 [17, 26]: 184.7 mm^3
% difference of tumor volume day 21 vs day1 ([17]; mouse code 6, total spinosad dosed 360 mg/kg): −2%
tumor volume on day 21 [17, 27]: 254.7 mm^3
tumor volume on day1 [17, 27]: 260.6 mm^3
% difference of tumor volume day 21 vs day1 ([17]; mouse code 9, total spinosad dosed 540 mg/kg): −33%
tumor volume on day 21 [17, 28]: 119.8 mm^3
tumor volume on day1 [17, 28]: 179.9 mm^3
% difference of tumor volume day 21 vs day1 ([17]; mouse code 10, total spinosad dosed 540 mg/kg): −44%
tumor volume on day 21 [17, 29]: 128.9 mm^3
tumor volume on day1 [17, 29]: 228.9 mm^3
% difference of tumor volume day 21 vs day1 ([17]; mouse code 12, total spinosad dosed 615 mg/kg): −11%
tumor volume on day 21 [17, 30]: 142.1 mm^3
tumor volume on day1 [17, 30]: 159.4 mm^3
% difference of tumor volume day 21 vs day1 ([17]; mouse code 13, total spinosad dosed 585 mg/kg): 6%
tumor volume on day 21 [17, 31]: 246.5 mm^3
tumor volume on day1 [17, 31]: 233.3 mm^3
mean volume change ([17]; spinosad treated group (6 mice), total 360-615 mg/kg i.p. over 20 days, day 21 vs day1, DMSO control 54%, P < 0.02): −21%
mean tumor volume decreased by ([17]; spinosad treated group, 21st day, control/DMSO group increased 54%, P-value <0.02): 21%
IC50 [18]: about 5 μg/ml
IC100 [18]: about 11.5 μg/ml
elimination of parasites in spleen (leishmania donovati; BALB/c female mice, 31.6 mg/kg intraperitoneally daily for 14 consecutive days in DMSO, from two weeks post infection, P=0.05): 82%
elimination of parasites in the liver (leishmania donovati; BALB/c female mice, 31.6 mg/kg intraperitoneally daily for 14 consecutive days in DMSO, P=0.083): 73%
impact on liver and spleen weight (leishmania donovati; BALB/c mice, 31.6 mg/kg i.p. 14 days, Mann-Whitney test): no impact
signs of toxicity (leishmania donovati; BALB/c mice, treatment period of 14 days): No sign of toxicity
ATP levels in the parasite (Plasmodium falciparum; albumin-containing medium (RPMI-1640), within erythrocytes and after isolation, spinosad 5-10 μg/ml in DMSO): reduces
ATP levels in the parasite (Plasmodium falciparum; isolated parasites in saline/spinosad medium (absence of albumin)): unaffected
cytotoxicity (H460 cells; 20 μg/mL spinosad, 3 hours of treatment): no cytotoxicity
concentration above which cell viability decreases (H460 cells; three hours of treatment): higher than 20 μg/mL
